Data reported in patent US10118922B2 (Janssen Pharmaceutica NV, priority 2013, dated 2018).

How the values were obtained:
C57b16 mouse = C57b16 mouse OGTT; assay type: in vivo; conditions: dosed 30 min prior to glucose PO 3 g/kg
Procedure: (§1) Male, C57bl/6J Mice were ordered in at 8 weeks of age from Jackson Labs. Individual mice weighed anywhere in the range of 25-30 grams on study day. The mice were fasted, with removal of food occurring at 7 am on the morning of the study. Animals were moved into the room at 10:00 am, to give them time to acclimate. Glucose (insulin syringes) was drawn up either the night before or the morning of the study. Glucose was dosed (IP) at 1.5 g/kg at 7.5 ml/kg (20% glucose straight TEKNOVA, 250 ml sterile bottle w/ catalogue number G0525). Test compounds were kept spinning and were only drawn into the syringes prior to study commencement. Animals were bled via tail snip to determine basal glucose levels prior to dosing of treatments. An Ascensia BREEZE Blood Glucose Monitoring System by Bayer (using unique 10-test disks) was used for determining glucose levels. The bleeds started at approximately 12:45 pm and dosing started, at 1-minute intervals, immediately after. All groups were dosed 30 minutes prior to glucose administration at a dose volume of 10 ml/kg (the dose volume was calculated separately for each individual animal). Thirty minutes after the first dose animals were bled again for a second baseline, or T=0, and immediately dosed with glucose via an i.p. injection. The exact dose volume for glucose was also calculated separately for each individual animal. Glucose measurements were taken at −30 min prior to compound dose, at t=0 (immediately prior to glucose dose), and at 15, 30, 45, 60, 90 min post glucose dose.
(§2) Glucose values were entered into an Excel sheet and graphed in GraphPad Prism. The following were calculated from Prism: Change from −30 to 0 BSLN Glucose, Raw Glucose AUC −30 to 90 min, Delta Glucose AUC −30 to 90 min, Raw Glucose AUC 0 to 90 min, Delta Glucose AUC 0 to 90 min.
The assay design is the same as that described above for the C57b16 mouse IPGTT. The difference is that glucose was dosed PO at 3 g/kg, 7.5 ml/kg of 40% glucose.

[1] = tested on: C57B16 mice on a high fat diet; assay: GPR120 DIO mice OGTT screening; assay type: in vivo, mouse; conditions: dosed 30 min prior to glucose PO
Procedure: 18-22 week old, C57B16 mice on a high fat diet (60% HFD) for 12-16 weeks (ave. body weight ˜37-41 g) were fasted for 6 hr, with removal of food occurring at 7 am on the morning of the study. The animals were sorted into treatment groups the day before the study by body weight. Animals outside the bounds of ˜30-50 g were left out of the study. The animals had been handled and shammed a total of 5-8 days (1-3 days immediately prior to the study). Glucose (in 1 mL syringes) was drawn up the morning of the study. Test compounds were kept spinning and were only drawn into 1 ml syringes prior to study commencement. Animals were bled via tail snip to determine basal glucose levels prior to dosing of treatments. An Ascensia BREEZE Blood Glucose Monitoring System by Bayer was used for determining glucose levels.
Animals were moved into the testing room at ˜9-11 am, to yield them time to acclimate. The bleeds and dosing started at approximately 1 pm in 30-second intervals per animal. All groups were dosed 30 minutes prior to glucose administration at a dose volume of 10 ml/kg (the dose volume was calculated separately for each individual animal). Test compounds were administered at one or more of the following dosages: 0.1 mg/kg, 0.3 mg/kg, 1 mg/kg, 3 mg/kg and 10 mg/kg.
Thirty minutes after the first dose (with test compound) animals were bled again for a second baseline, or T=0, and immediately dosed with glucose (20% solution; TEKNOVA, 250 ml sterile bottle w/ catalogue number G0525) via a PO injection. The exact dose volume for glucose was also calculated separately for each individual animal.
Blood glucose was measured at 15, 30, 45, 60, and 90 minutes post-glucose administration via the snipped tail. If an animal reached a value of “HI”, the upper limit of the glucometer (600 mg/dl) was substituted as the blood glucose value and the study was analyzed as normal with no exclusions. If 50% or more of any treatment group reaches a “HI” value at least once, the study was considered invalid and repeated. Glucose values were typed into an EXCEL spreadsheet where they were used to calculate glucose AUC and delta AUC post-compound and post-glucose. The glucose excursion curves and the different versions of the AUC's were graphed in GraphPad Prism 5.
Note: All statistics completed in this study were completed using the statistical software package GraphPad Prism 5. Standard procedures for analyzing data sets from screening GPR120 compounds in DIO mouse OGTT's were as listed here below. In addition to the statistics that were run using GraphPad Prism 5, Microsoft Excel was used to calculate the percent changes in AUC from vehicle groups as detailed below.
Change from −30 to 0 BSLN Glucose, Raw Glucose AUC −30 to 90 min, Delta Glucose AUC −30 to 90 min, Raw Glucose AUC 0 to 90 min, Delta Glucose AUC 0 to 90 min were analyzed using Column Statistics Analysis, with mean values used to calculate % change from the vehicle mean group, as well as mean, SEM and/or % change from vehicle, where appropriate; and using One-Way ANOVA w/ a Tukey Post-Test (Comparing All Pairs of Columns) with each treatment group examined to see if it was statistically significant compared to vehicle (*=P<0.05, **=P<0.01, ***=P<0.001).

C57bl/6J Mice = assay: GPR120 C57bl6 mouse IPGTT; assay type: in vivo; conditions: 3 mg/kg, dosed 30 min prior to glucose IP 1.5 g/kg
Procedure: as §1, §2

O=C(O)CCc1cc(F)c(OCc2c(C3CCCC3)nsc2C(F)(F)F)c(F)c1 [Cpd 71, 3-(4-[[3-cyclopentyl-5-(trifluoromethyl)-1,2-thiazol-4-yl]methoxy]-3,5-difluorophenyl)propanoic acid]
C57 OGTT 3 mg/kg (C57b16 mouse): −37 | DIO Lowering Glucose AUC (−30 to 90) @ 10 mg/kg [1]: −0.52 | C57 IPGTT 3 mg/kg (C57bl/6J Mice): −14

Cc1ccc(-c2nsc(C(F)(F)F)c2COc2c(F)cc(CC(C)C(=O)O)cc2F)c(F)c1 (centres unmarked) [Cpd 76, 3-(3,5-difluoro-4-[[3-(2-fluoro-4-methylphenyl)-5-(trifluoromethyl)-1,2-thiazol-4-yl]methoxy]phenyl)-2-methylpropanoic acid]
DIO Lowering Glucose AUC (−30 to 90) @ 10 mg/kg [1]: −0.8

CCc1ccc(-c2nsc(C(F)(F)F)c2COc2ccc(CCC(=O)O)c(F)c2F)cc1 [Cpd 73, 3-(4-((3-(4-ethylphenyl)-5-(trifluoromethyl)isothiazol-4-yl)methoxy)-2,3-difluorophenyl)propanoic acid]
DIO Lowering Glucose AUC (−30 to 90) @ 10 mg/kg [1]: −0.51

Cc1ccc(-c2nsc(C(F)(F)F)c2COc2c(F)cc(CCC(=O)O)cc2F)c(F)c1 [Cpd 65, 3-(3,5-difluoro-4-[[3-(2-fluoro-4-methylphenyl)-5-(trifluoromethyl)-1,2-thiazol-4-yl]methoxy]phenyl)propanoic acid]
DIO Lowering Glucose AUC (−30 to 90) @ 10 mg/kg [1]: −0.61

O=C(O)CCc1cc(F)c(OCc2c(-c3ccc(Cl)c(F)c3)nsc2C(F)(F)F)c(F)c1 [Cpd 67, 3-(4-((3-(4-chloro-3-fluorophenyl)-5-(trifluoromethyl)isothiazol-4-yl)methoxy)-3,5-difluorophenyl)propanoic acid]
DIO Lowering Glucose AUC (−30 to 90) @ 10 mg/kg [1]: −0.78

O=C(O)CCc1cc(F)c(OCc2c(-c3ccc(Cl)cc3F)nsc2C(F)(F)F)c(F)c1 [Cpd 74, 3-(4-((3-(4-chloro-2-fluorophenyl)-5-(trifluoromethyl)isothiazol-4-yl)methoxy)-3,5-difluorophenyl)propanoic acid]
DIO Lowering Glucose AUC (−30 to 90) @ 10 mg/kg [1]: −0.71
